Measurements reported in patent US9238039B2, “Pyrazolo[1,5-A]pyrimidines for antiviral treatment” (Gilead Sciences, Inc., priority 2010, dated 2016).

System: RSV strain A2
Experiment: RSV antiviral cytoprotection assay in Hep2 cells (96-well and 384-well format, Cell TiterGlo read-out)
Type: cell-based, Respiratory Syncytial Virus (RSV)
Settings: human respiratory syncytial virus; for inhibition at 0.5 µM: HEp-2, 0.5 uM; for EC50: HEp-2, RSV-induced cytopathic effects, Hep2 cells, class symbols
[1] = RSV-induced cytopathic effect in Hep2 cells, calculated from fitted dose response curve, normalized to 0% and 100%

Compound | inhibition at 0.5 µM [1] [%] | EC50 [nM] | inhibition at 1 µM (HEp-2, 1 uM, RSV-induced cytopathic effect in Hep2 cells, calculated from fitted dose response curve, normalized to 0% and 100%) [%]
Cc1ccc(NS(C)(=O)=O)c(C(=O)N2CCCC[C@H]2c2cc3nc(N4CC[C@@H](C#N)C4)c(C)cn3n2)c1 [Compound 188] | 100 | 0.1 to 100 | –
C[C@H]1CC[C@@H](c2cc3nc(N4CCC4)cc(N4CCOCC4)n3n2)N(C(=O)c2cc(Cl)ccc2NS(C)(=O)=O)C1 [Compound 143] | 100 | 0.1 to 100 | –
Cc1cn2nc([C@@H]3CCCCN3C(=O)c3nnn(C)c3C)cc2nc1N1CC[C@H](N)C1 [Compound 285] | 100 | 0.1 to 100 | –
Cc1cn2nc([C@@H]3CCCCN3C(=O)c3cc(Cl)ccc3NS(C)(=O)=O)cc2nc1N1CC(OC(=O)[C@@H](N)C(C)C)C1 [Compound 187] | 100 | 0.1 to 100 | –
CS(=O)(=O)Nc1ccc(Cl)cc1C(=O)N1CCCC[C@H]1c1cc2nc(N3CC(O)C3)cc(N3CCN(CC(F)(F)F)CC3)n2n1 [Compound 83] | 98 | 0.1 to 100 | –
Cc1cn2nc([C@@H]3CCCCN3C(=O)c3ccc4c(c3)OCCO4)cc2nc1N1CC[C@H](N)C1 [Compound 364] | 99 | 0.1 to 100 | –
Cc1cc(Cl)cc(C(=O)N2CCCC[C@H]2c2cc3[nH]c(C)c(C)c(=O)n3n2)c1NS(C)(=O)=O [Compound 120] | 100 | 0.1 to 100 | –
CS(=O)(=O)Nc1ccc(Cl)cc1C(=O)N1CCCC[C@H]1c1cc2nc(N3CC(O)C3)cc(N3CCOC3)n2n1 [Compound 77] | 100 | 0.1 to 100 | –
Cc1[nH]c2cc([C@@H]3COCCN3C(=O)c3ccccc3NS(C)(=O)=O)nn2c(=O)c1C [Compound 20, N-{2-[3-(5,6-Dimethyl-7-oxo-4,7-dihydro-pyrazolo[1,5-a]pyrimidin-2-yl)-morpholine-4-carbonyl]-phenyl}-methanesulfonamide] | 7 | 1000 to 10000 | 53
CS(=O)(=O)Nc1ccc(Cl)cc1C(=O)N1CCCC[C@H]1c1cc2nc(N3CC[C@@H](O)C3)cc(N3CC(N)C3)n2n1 [Compound 132] | 97 | 0.1 to 100 | –
Cc1cn2nc([C@@H]3Cc4ccccc4CN3C(=O)c3cc(Cl)ccc3NS(C)(=O)=O)cc2nc1N1CC[C@H](N)C1 [Compound 176] | 100 | 0.1 to 100 | –
Cc1cn2nc([C@@H]3CCCCN3C(=O)c3cc(Cl)ccc3NS(C)(=O)=O)cc2nc1NC(=N)N [Compound 139] | 99 | 0.1 to 100 | –
C[C@@H]1CN(c2cc(N3CC(O)C3)nc3cc([C@@H]4CCCCN4C(=O)c4cc(Cl)ccc4NS(C)(=O)=O)nn23)C[C@H](C)O1 [Compound 108] | 100 | 0.1 to 100 | –
CS(=O)(=O)Nc1ccc(Cl)cc1C(=O)N1CCCCCC1c1cc2nc(N3CCC3)cc(N3CCOCC3)n2n1 (stereo not drawn) [Compound 177] | 99 | 0.1 to 100 | –
Cc1cn2nc([C@@H]3CCCCN3C(=O)c3ccccc3-c3ccccc3)cc2nc1N1CC[C@H](N)C1 [Compound 407] | 92 | 0.1 to 100 | –
Cc1cn2nc([C@@H]3CCCCN3C(=O)c3c4c(nn3C)CCCC4)cc2nc1N1CC[C@H](N)C1 [Compound 367] | 94 | 0.1 to 100 | –
CS(=O)(=O)Nc1ccc(Cl)cc1C(=O)N1CCCC[C@H]1c1cc2nc(N3CCC3)cc(N3CC(O)C3)n2n1 [Compound 56] | 100 | 0.1 to 100 | –
Cc1cn2nc([C@@H]3CC[C@H](C)CN3C(=O)c3cc(Cl)ccc3NS(C)(=O)=O)cc2nc1N1CC(N)C1 [Compound 137] | 100 | 0.1 to 100 | –
Cc1ccc(N2CCCC2=O)c(C(=O)N2CCCC[C@H]2c2cc3nc(C4CC4)cc(C)n3n2)c1 [Compound 112] | 97 | 0.1 to 100 | –
CN1CCN(c2cc(N3CCC3)nc3cc([C@@H]4CCCCN4C(=O)c4cc(Cl)ccc4NS(C)(=O)=O)nn23)CC1 [Compound 165] | 100 | 0.1 to 100 | –
COc1ccc(C(=O)N2CCCC[C@H]2c2cc3nc(N4CC[C@H](N)C4)c(C)cn3n2)cc1Cl [Compound 375] | 99 | 0.1 to 100 | –
Cc1cn2nc([C@@H]3CCCCN3C(=O)c3nn(C)c4ccccc34)cc2nc1N1CC[C@H](N)C1 [Compound 357] | 82 | 101 to 1000 | –
Cc1cn2nc([C@@H]3CCCCN3C(=O)c3cc(Cl)ccc3NS(C)(=O)=O)cc2nc1N1CC(OP(=O)(O)O)C1 [Compound 244] | 88 | 0.1 to 100 | –
Cc1cn2nc([C@@H]3CCCCN3C(=O)c3cccc(N)c3)cc2nc1N1CC[C@H](C#N)C1 [Compound 153] | 100 | 0.1 to 100 | –
Cc1cn2nc([C@@H]3CCCCN3C(=O)c3cn4ccccc4n3)cc2nc1N1CC[C@H](N)C1 [Compound 311] | 100 | 0.1 to 100 | –
CN(C)CCN(C)c1cc(N2CC(O)C2)nc2cc([C@@H]3CCCCN3C(=O)c3cc(Cl)ccc3NS(C)(=O)=O)nn12 [Compound 55] | 100 | 0.1 to 100 | –
Cc1cn2nc([C@@H]3CCCCN3C(=O)c3cc(Cl)ccc3NS(C)(=O)=O)cc2nc1N1CC(N)C(C#N)C1 (stereo partly drawn) [Compound 186] | 100 | 0.1 to 100 | –

Compound | inhibition at 0.5 µM [1] [%] | EC50 [nM] | inhibition at 1 µM (HEp-2, 1 uM, RSV-induced cytopathic effect in Hep2 cells, calculated from fitted dose response curve, normalized to 0% and 100%) [%]
Cc1cn2nc([C@@H]3CCCCN3C(=O)c3cccc(OC(C)C)c3)cc2nc1N1CC[C@H](N)C1 [Compound 365] | 100 | 0.1 to 100 | –
Cc1cn2nc([C@@H]3CCCCN3C(=O)c3ccsc3)cc2nc1N1CC[C@H](N)C1 [Compound 267] | 99 | 0.1 to 100 | –
CS(=O)(=O)Nc1ccc(Cl)cc1C(=O)N1CCCC[C@H]1c1cc2nc(N3CCC3)cc(N3CCN[C@@H](CF)C3)n2n1 [Compound 162] | 100 | 0.1 to 100 | –
Cc1cn2nc([C@@H]3CCCCN3C(=O)c3ccnc(-n4cnnc4)c3)cc2nc1N1CC[C@H](N)C1 [Compound 388] | 100 | 0.1 to 100 | –
CC#Cc1cc(N2CCOCC2)n2nc([C@@H]3CCCCN3C(=O)c3cc(Cl)ccc3NS(C)(=O)=O)cc2n1 [Compound 110] | 100 | 0.1 to 100 | –
Cc1cn2nc([C@@H]3CCCCN3C(=O)c3cc(-c4ccccc4)ccn3)cc2nc1N1CC[C@H](N)C1 [Compound 410] | – | 1000 to 10000 | –
CC(=O)Nc1c(C)c(C)nc2cc([C@@H]3CCCCN3C(=O)c3cc(C)ccc3NS(C)(=O)=O)nn12 [Compound 88] | 98 | 0.1 to 100 | –
Cc1cn2nc([C@@H]3CCCCN3C(=O)c3ccc(C4CC4)cc3)cc2nc1N1CC[C@H](N)C1 [Compound 313] | 100 | 0.1 to 100 | –
CC(C)(C)OC(=O)N1CCN(c2cc(C3CC3)nc3cc([C@@H]4CCCCN4C(=O)c4cc(Cl)ccc4NS(C)(=O)=O)nn23)CC1 [Compound 226] | 100 | 0.1 to 100 | –
Cc1cn2nc([C@@H]3CCCCN3C(=O)c3cc(-c4ccccc4)on3)cc2nc1N1CC[C@H](N)C1 [Compound 383] | 99 | 0.1 to 100 | –
Cc1cn2nc([C@@H]3CCCCN3C(=O)c3ccc(F)c(F)c3O)cc2nc1N1CC[C@H](N)C1 [Compound 346] | 100 | 0.1 to 100 | –
CC(=O)Nc1ccc(C)cc1C(=O)N1CCCC[C@H]1c1cc2nc(N3CC(N)C3)c(C)cn2n1 [Compound 222] | 100 | 0.1 to 100 | –
Cc1ccc(NS(C)(=O)=O)c(C(=O)N2CCCC[C@H]2c2cc3nc(N4CCC4)c(C)cn3n2)c1 [Compound 189] | 100 | 0.1 to 100 | –
Cc1cn2nc([C@@H]3CCCCN3C(=O)c3sccc3Cl)cc2nc1N1CC[C@H](N)C1 [Compound 314] | 100 | 0.1 to 100 | –
CCn1nc(C(=O)N2CCCC[C@H]2c2cc3nc(N4CC[C@H](N)C4)c(C)cn3n2)cc1C [Compound 301] | 100 | 0.1 to 100 | –
Cc1cn2nc([C@@H]3CCCCN3C(=O)c3ccccc3CO)cc2nc1N1CC[C@H](N)C1 [Compound 291] | 88 | 0.1 to 100 | –
Cc1cc(C(=O)N2CCCC[C@H]2c2cc3nc(N4CC[C@H](N)C4)c(C)cn3n2)c(Cl)nn1 [Compound 341] | 75 | 0.1 to 100 | –
CS(=O)(=O)Nc1ccc(Cl)cc1C(=O)N1CCCC[C@H]1c1cc2nc(N3CC[C@@H](O)C3)cc(N3CCOCC3)n2n1 [Compound 71] | 95 | 0.1 to 100 | –
Cc1cn2nc([C@@H]3CCCCN3C(=O)c3cc(Cl)ccc3NS(C)(=O)=O)cc2nc1N1CCCCN1 [Compound 141] | 95 | 0.1 to 100 | –
CS(=O)(=O)Nc1ccc(Cl)cc1C(=O)N1CCCC[C@H]1c1cc2nc(N3CCC3)cc(CN3CCOCC3)n2n1 [Compound 256] | 87 | 0.1 to 100 | –
Cc1cn2nc([C@@H]3CCCCN3C(=O)c3cc4ncccn4n3)cc2nc1N1CC[C@H](N)C1 [Compound 315] | 100 | 0.1 to 100 | –
CS(=O)(=O)Nc1ccc(Cl)cc1C(=O)N1CCCC[C@H]1c1cc2nc(C3CC3)cc(N3CCC3)n2n1 [Compound 64] | 98 | 0.1 to 100 | –
Cc1cn2nc([C@@H]3CCCCN3C(=O)c3cc(Cl)ccc3NS(C)(=O)=O)cc2nc1N1CC(Oc2ccccn2)C1 [Compound 212] | 88 | 101 to 1000 | –
Cc1cn2nc([C@@H]3CCCCN3C(=O)c3cc(Cl)ccc3NS(C)(=O)=O)cc2nc1N1CCC(N)CC1 [Compound 216] | 100 | 0.1 to 100 | –
CC1(O)CN(c2cc(N3CCC3)nc3cc([C@@H]4CCCCN4C(=O)c4cc(Cl)ccc4NS(C)(=O)=O)nn23)C1 [Compound 105] | 100 | 0.1 to 100 | –
Cc1cn2nc([C@@H]3CCCCN3C(=O)c3ccnn3CC(F)(F)F)cc2nc1N1CC[C@H](N)C1 [Compound 401] | 100 | 0.1 to 100 | –
Cc1cn2nc([C@@H]3CCCCN3C(=O)c3cccn4c(C)nnc34)cc2nc1N1CC[C@H](N)C1 [Compound 358] | 100 | 0.1 to 100 | –
